Reference: ChEMBL document CHEMBL5136991, “Dual-target inhibitors of poly (ADP-ribose) polymerase-1 for cancer therapy: Advances, challenges, and opportunities” (Eur J Med Chem, 2022)
One block for each compound: values may come before it.

Columns and labels:
[1] = Inhibition of PARP (unknown origin); parameters: species or system Homo sapiens
[2] = molecular target: Rho-associated protein kinase 2 (Homo sapiens, UniProt O75116); test: Inhibition of ROCK2 (unknown origin)
[3] = molecular target: Rho-associated protein kinase 1 (Homo sapiens, UniProt Q13464); test: Inhibition of ROCK1 (unknown origin)
Chain of Rho-associated protein kinase 1 (Q13464 whole entry): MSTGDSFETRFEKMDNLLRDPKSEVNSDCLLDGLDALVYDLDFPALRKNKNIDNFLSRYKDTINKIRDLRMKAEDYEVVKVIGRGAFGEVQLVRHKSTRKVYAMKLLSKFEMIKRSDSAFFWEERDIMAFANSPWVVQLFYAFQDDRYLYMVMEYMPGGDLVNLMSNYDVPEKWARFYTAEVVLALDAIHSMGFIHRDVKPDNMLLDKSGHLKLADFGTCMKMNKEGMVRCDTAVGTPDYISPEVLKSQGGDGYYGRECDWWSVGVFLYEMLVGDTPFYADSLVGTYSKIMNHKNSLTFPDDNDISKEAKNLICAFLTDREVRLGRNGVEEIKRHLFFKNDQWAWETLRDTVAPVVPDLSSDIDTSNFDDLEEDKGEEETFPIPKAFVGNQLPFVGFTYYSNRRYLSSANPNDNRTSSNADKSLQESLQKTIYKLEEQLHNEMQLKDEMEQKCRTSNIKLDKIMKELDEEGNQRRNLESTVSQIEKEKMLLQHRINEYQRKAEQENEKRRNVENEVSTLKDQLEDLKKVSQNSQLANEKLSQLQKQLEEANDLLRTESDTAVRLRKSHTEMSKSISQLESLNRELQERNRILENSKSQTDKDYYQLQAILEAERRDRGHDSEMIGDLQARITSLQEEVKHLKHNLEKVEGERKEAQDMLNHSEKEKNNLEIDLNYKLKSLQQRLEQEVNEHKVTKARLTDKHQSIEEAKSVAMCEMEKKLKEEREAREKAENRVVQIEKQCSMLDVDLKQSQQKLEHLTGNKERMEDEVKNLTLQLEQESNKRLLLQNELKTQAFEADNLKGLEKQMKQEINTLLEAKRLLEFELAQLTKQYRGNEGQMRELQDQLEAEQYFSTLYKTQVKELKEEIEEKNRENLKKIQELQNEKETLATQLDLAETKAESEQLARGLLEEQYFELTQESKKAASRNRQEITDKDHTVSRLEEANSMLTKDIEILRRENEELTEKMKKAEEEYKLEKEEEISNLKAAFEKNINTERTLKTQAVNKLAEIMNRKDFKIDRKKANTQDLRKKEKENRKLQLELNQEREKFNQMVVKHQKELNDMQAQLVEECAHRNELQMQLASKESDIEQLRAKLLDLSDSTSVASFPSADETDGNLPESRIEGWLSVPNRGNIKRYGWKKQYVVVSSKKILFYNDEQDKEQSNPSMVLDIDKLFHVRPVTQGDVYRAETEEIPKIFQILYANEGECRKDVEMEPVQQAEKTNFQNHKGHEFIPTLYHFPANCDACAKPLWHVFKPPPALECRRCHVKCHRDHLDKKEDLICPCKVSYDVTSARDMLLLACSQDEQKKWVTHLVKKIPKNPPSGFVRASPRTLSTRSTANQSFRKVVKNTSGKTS

[4] = system: MCF7; test: Antiproliferative activity against BRCA proficient human MCF7 cells assessed as inhibition of cell growth incubated for 48 hrs by MTT assay; type: functional, cell-based; details: MCF7, 48 h
[5] = system: HCC1937; test: Antiproliferative activity against BRCA deficient human HCC1937 cells assessed as inhibition of cell growth incubated for 48 hrs by MTT assay; type: functional, cell-based; details: HCC1937, 48 h
[6] = molecular target: Dihydroorotate dehydrogenase (quinone), mitochondrial (Homo sapiens, UniProt Q02127); test: Inhibition of DHODH (unknown origin)
Chain of Dihydroorotate dehydrogenase (quinone), mitochondrial (Q02127 whole entry): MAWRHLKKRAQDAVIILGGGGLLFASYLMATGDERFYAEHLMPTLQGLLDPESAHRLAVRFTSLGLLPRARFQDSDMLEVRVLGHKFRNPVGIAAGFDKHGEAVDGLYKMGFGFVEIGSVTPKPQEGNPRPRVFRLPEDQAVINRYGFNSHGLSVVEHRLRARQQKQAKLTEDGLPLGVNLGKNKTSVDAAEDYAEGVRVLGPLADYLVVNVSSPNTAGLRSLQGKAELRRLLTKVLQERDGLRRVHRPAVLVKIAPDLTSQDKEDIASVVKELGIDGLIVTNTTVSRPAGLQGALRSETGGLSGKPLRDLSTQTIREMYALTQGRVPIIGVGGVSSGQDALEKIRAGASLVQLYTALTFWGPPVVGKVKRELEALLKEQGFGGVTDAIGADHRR

[7] = molecular target: T1, Poly [ADP-ribose] polymerase 1 (Homo sapiens, UniProt P09874); test: Inhibition of PARP1 (unknown origin) at […] relative to control
T1 sequence (P09874 whole entry): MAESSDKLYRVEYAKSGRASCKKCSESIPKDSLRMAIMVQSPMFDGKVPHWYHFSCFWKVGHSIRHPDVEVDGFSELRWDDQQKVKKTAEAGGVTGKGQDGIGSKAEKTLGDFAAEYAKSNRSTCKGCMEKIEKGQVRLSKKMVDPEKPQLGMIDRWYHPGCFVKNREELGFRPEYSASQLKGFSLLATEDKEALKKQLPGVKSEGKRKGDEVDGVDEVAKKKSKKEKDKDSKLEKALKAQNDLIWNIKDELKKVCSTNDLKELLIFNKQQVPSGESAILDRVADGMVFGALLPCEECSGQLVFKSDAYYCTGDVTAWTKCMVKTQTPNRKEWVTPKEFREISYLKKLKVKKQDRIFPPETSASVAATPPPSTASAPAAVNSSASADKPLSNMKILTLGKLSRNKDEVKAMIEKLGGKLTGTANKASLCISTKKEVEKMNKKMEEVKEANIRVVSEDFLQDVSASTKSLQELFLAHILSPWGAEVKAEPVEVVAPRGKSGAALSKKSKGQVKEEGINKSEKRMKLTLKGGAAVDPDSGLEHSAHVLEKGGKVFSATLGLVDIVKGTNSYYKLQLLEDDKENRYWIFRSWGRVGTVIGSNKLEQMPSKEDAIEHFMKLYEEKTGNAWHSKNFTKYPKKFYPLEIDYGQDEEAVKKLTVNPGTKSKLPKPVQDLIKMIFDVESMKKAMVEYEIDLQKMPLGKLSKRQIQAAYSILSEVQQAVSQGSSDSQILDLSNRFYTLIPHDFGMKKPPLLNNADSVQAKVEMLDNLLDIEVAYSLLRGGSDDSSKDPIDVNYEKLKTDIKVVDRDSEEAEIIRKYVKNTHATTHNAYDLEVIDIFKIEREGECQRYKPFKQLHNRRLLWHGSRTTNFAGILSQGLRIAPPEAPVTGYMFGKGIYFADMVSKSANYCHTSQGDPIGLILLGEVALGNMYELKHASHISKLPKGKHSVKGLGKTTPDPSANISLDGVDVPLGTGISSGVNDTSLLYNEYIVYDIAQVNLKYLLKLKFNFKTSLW

[8] = molecular target: T2, Bromodomain-containing protein 4 (Homo sapiens, UniProt O60885); test: Inhibition of BRD4 (unknown origin) at […] relative to control
[9] = molecular target: T3, Bromodomain-containing protein 1 (Homo sapiens, UniProt O95696); test: Inhibition of BRD1 (unknown origin)
T3 sequence (O95696 whole entry): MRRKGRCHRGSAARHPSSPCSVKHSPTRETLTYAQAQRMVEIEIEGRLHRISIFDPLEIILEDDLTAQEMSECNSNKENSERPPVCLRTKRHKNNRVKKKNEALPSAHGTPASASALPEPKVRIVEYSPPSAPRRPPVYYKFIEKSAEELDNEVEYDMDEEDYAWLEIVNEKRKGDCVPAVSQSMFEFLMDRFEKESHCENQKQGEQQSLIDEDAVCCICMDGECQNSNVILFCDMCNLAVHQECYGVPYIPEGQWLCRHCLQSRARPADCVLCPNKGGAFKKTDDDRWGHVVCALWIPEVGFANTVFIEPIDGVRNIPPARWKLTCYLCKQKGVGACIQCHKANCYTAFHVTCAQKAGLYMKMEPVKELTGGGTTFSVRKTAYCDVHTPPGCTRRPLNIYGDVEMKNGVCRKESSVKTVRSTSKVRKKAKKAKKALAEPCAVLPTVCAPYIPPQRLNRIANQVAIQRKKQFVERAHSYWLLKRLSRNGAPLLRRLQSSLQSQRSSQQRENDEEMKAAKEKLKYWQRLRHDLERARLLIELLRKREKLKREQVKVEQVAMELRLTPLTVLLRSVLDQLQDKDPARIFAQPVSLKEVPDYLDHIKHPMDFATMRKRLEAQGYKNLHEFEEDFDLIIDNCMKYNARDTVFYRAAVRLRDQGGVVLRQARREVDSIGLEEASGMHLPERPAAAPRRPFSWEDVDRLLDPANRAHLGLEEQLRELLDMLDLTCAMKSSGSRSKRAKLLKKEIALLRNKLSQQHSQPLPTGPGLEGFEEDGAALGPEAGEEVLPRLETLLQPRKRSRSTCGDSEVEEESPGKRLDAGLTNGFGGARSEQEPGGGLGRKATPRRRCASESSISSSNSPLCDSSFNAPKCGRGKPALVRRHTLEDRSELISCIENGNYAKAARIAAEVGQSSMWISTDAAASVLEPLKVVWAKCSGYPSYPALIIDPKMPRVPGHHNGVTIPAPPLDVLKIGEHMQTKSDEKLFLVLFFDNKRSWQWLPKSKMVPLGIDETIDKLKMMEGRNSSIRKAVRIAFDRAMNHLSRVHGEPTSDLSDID

[10] = molecular target: T2, Bromodomain-containing protein 4; test: Inhibition of BRD4 (unknown origin)
[11] = molecular target: Bromodomain-containing protein 2 (Homo sapiens, UniProt P25440); test: Inhibition of BRD2 (unknown origin)
[12] = Cmax in Sprague-Dawley rat plasma at 10 mg/kg, po; type: ADME, organism-based; parameters: dose 10 mg/kg, route po; details: in vivo
[13] = AUC (0 to infinity) in Sprague-Dawley rat plasma at 10 mg/kg, po; type: ADME, organism-based; parameters: time infinity, dose 10 mg/kg, route po; details: in vivo
[14] = Half life in Sprague-Dawley rat plasma at 10 mg/kg, po; type: ADME, organism-based; details: in vivo
[15] = molecular target: T1, Poly [ADP-ribose] polymerase 1; test: Inhibition of PARP1 (unknown origin)
[16] = molecular target: T1, Poly [ADP-ribose] polymerase 1; test: Inhibition of PARP1 (unknown origin) relative to control; details: concentration not given here
[17] = MRT in Sprague-Dawley rat plasma at 10 mg/kg, po; type: ADME, organism-based
[18] = molecular target: T2, Bromodomain-containing protein 4; test: Ratio of IC50 for RVX-208 to IC50 for test compound for BRD4 (unknown origin)
[19] = molecular target: T2, Bromodomain-containing protein 4; test: Inhibition of BRD4 (unknown origin) relative to control; details: concentration not given here
[20] = Tmax in Sprague-Dawley rat plasma at 10 mg/kg, po; type: ADME, organism-based; details: in vivo
[21] = Ratio of olaparib IC50 to test compound IC50 for antiproliferative against BRCA proficient human MCF7 cells; type: functional
[22] = Ratio of olaparib IC50 to test compound IC50 for antiproliferative against BRCA deficient human HCC1937 cells; type: functional
[23] = molecular target: T1, Poly [ADP-ribose] polymerase 1; test: Inhibition of PARP1 (unknown origin) incubated for 60 mins by microplate assay kit method
[24] = Inhibition of porcine brain microtubule polymerization incubated for 105 mins by fluorescent based assay; parameters: species or system Sus scrofa
[25] = molecular target: Poly [ADP-ribose] polymerase 2 (Homo sapiens, UniProt Q9UGN5); test: Inhibition of PARP2 (unknown origin) incubated for 60 mins by microplate assay kit method
Chain of Poly [ADP-ribose] polymerase 2 (Q9UGN5 whole entry): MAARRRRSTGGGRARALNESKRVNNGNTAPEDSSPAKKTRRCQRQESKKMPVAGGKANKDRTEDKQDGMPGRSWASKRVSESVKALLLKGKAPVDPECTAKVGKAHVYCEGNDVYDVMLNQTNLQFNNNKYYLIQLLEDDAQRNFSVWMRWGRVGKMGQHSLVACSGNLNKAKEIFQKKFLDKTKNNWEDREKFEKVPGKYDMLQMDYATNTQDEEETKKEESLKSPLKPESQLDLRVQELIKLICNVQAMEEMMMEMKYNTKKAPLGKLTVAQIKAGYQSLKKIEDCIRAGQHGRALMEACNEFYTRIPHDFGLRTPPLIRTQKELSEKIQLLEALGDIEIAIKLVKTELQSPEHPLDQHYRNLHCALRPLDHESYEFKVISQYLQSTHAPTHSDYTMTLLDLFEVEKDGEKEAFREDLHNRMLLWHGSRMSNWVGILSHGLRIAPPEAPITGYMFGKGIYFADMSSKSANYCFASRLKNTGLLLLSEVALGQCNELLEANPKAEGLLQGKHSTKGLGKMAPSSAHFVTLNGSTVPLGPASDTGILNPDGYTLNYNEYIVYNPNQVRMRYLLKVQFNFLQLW

Chain of Rho-associated protein kinase 2 (O75116 whole entry): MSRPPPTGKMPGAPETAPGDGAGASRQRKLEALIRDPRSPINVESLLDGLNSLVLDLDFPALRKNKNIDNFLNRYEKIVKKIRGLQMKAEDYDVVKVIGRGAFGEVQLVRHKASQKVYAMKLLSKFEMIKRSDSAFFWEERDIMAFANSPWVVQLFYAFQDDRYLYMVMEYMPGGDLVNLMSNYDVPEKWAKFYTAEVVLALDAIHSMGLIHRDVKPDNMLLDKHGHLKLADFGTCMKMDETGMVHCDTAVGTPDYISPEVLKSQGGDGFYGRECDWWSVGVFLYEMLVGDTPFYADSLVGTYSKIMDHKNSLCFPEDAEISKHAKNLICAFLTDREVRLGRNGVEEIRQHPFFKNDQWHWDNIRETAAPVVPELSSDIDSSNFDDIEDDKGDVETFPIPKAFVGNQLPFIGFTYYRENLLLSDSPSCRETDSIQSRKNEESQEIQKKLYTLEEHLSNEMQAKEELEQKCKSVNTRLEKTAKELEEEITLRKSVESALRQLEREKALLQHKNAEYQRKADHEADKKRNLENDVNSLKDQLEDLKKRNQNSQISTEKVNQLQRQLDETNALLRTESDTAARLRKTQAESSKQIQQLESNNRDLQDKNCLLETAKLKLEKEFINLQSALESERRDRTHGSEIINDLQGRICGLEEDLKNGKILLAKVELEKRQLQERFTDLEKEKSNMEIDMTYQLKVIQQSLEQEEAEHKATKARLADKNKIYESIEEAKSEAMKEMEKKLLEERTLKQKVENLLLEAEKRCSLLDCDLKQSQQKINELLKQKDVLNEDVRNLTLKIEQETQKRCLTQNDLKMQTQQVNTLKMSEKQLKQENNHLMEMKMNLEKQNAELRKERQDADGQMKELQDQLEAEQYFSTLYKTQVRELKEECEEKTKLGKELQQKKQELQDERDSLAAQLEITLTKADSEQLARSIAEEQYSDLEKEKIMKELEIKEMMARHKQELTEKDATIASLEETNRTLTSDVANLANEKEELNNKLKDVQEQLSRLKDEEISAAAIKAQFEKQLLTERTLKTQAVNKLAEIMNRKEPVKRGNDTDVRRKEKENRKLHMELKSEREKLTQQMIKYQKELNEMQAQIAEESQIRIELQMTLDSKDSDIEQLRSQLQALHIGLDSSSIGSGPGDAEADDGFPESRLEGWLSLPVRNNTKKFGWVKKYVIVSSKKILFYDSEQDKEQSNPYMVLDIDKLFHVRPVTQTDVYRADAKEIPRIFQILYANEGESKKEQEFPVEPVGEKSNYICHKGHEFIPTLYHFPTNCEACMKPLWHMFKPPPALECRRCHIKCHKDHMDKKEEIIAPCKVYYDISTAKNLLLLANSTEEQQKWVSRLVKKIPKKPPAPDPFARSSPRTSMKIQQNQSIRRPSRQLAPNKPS

- IC50 [1]: 460 nM
Compound: CC(=O)Nc1cccc(-c2ccc(-c3nc4c(C(N)=O)cccc4[nH]3)cc2)c1

- IC50 [2]: 20500 nM
- IC50 [3]: 9300 nM
Compound: O=C(COc1cccc2c(=O)[nH]ccc12)c1ccccc1

- IC50 [4]: 232000 nM
- IC50 [5]: 83100 nM
Compound: O=C(c1cc(Cc2n[nH]c(=O)c3ccccc23)ccc1F)N1CCN(C(=O)C2CC2)CC1 [OLAPARIB]

- IC50 [6]: 48000 nM
- IC50 [1]: 84 nM
Compound: O=C(O)c1cc(F)cc2[nH]c(-c3ccc(-c4ccc(NC(=O)C5CC5)cc4F)cc3F)nc12

- inhibition [7]: 65%
- inhibition [8]: 30%
Compound: COc1cc(OC)c2c(=O)[nH]c(-c3ccc([C@@H]4CCCNC4)cc3)nc2c1

- IC50 [9]: 440 nM
- IC50 [10]: 400 nM
- IC50 [11]: 379 nM
- Cmax [12]: 26.65 ng/mL
- AUC [13]: 144.7 ng·h/mL
- t1/2 [14]: 3.1 h
- IC50 [15]: 4600 nM
- inhibition [16]: 88%
- MRT [17]: 5.35 h
- Ratio IC50 [18]: 30
- inhibition [19]: 92%
- Tmax [20]: 1.58 h
Compound: COc1cc(OC)c2c(=O)[nH]c(-c3ccc(OCCOc4ccccc4C(N)=O)cc3)nc2c1

Compound: O=C1/C(=C/c2ccncc2)CN(C(=O)c2cc(Cc3n[nH]c(=O)c4ccccc34)ccc2F)C/C1=C\c1ccncc1
- Ratio IC50 [21]: 200
- Ratio IC50 [22]: 40

- IC50 [1]: 44000 nM
Compound: CC(=O)Nc1ccc(COc2ccc(-c3ccc(-c4nc5c(C(=O)O)cc(C)cc5[nH]4)cc3)cc2)cc1

- IC50 [23]: 5 nM
- IC50 [24]: 990 nM
- IC50 [25]: 50 nM
Compound: CCOC(=O)Nc1nc2ccc(-c3cc(Cc4n[nH]c(=O)c5ccccc45)ccc3F)cc2[nH]1

- IC50 [1]: 61 nM
Compound: NC(=O)c1cccc2[nH]c(-c3ccc(-c4cncc(CN5CCCC5)c4)cc3)nc12
